Measured values as given in patent US20050031537A1, “Multifunctional COX-2 inhibitors” (priority 2002, published 2005).

Legend:
PPRE luciferase = PPRE luciferase activation, transient transfection reporter assay (test (a)); format: cell-based, human; settings: positive in 184B5, 184B5/HER, HCA7, HCT116, SKBR3 and BT474 cells; 24 h treatment
Description: We turn now to criterion (a), that is activation of PPRE luciferase by at least 100%. PPRE-luciferase refers to a DNA construct containing the peroxisome proliferator activated receptor (PPAR) binding element joined to luciferase. Cells are transfected with PPRE-luciferase DNA. Ligands of PPAR induce luciferase activity. The ability of a test compound to stimulate PPRE-luciferase signifies that the test compound activates PPAR-mediated gene transcription. PPRE means peroxisome proliferator response element and the method by which PPRE-luciferase is constructed is described in Schoonjans, K., et al, J. Biol. Chem. 270, No. 33, 19269-19276 (Aug. 18, 1995). Use of PPRE-luciferase in a transient transfection to measure increase in promoter activity is disclosed in Subbaramaiah, K. et al, J. Biol. Chem. 270, No. 15, 12440-12448 (Apr. 13, […]).
For each well, 1.8 μg of PPRE3-tk-luciferase construct plasmid DNA (described in Forman, B. M., et al, Cell 83, 803 (1995)) plus 0.2 μg of pSV-β-galactosidase were introduced into cells using 8 μg of LipofectAMINE as per the manufacturer's instructions (Invitrogen, CA). After 7 h of incubation, the medium was replaced with basal medium. After transfection, cells were treated with test compound for 24 h. Reporter activities which include luciferase and β-galactosidase were measured in cellular extract 24 h later. Six wells were used for each of the conditions. Luciferase activity represents data that have been normalized with β-galactosidase.
The luciferase assay was performed as per the BD Pharmingen assay reagents. The Enhanced Luciferase Assay Kit provides a firefly luciferase substrate formulation (Substrates A and B) and cell lysis buffer intended for use in measuring luciferase expressed by transfected cells. Media from cell culture plates was removed and rinsed twice with phosphate buffered saline. Enough 1X cell lysis buffer was added to cover cells and incubated at room temperature for 15-20 min. Cells were dislodged by scraping and transferred to microcentrifuge tubes. […] 20-100 μl cell extract was placed into an assay cuvette. One automatic injector type luminometer is used for assay. Manually 100 μl of Substrate A was added to the assay cuvette and automatically 100 μl of Substrate B was injected. Measurements were performed using a luminometer, for a measurement time of 10 seconds.
The β-galactosidase assay was performed as follows:
50 μl of cell lysate from above was incubated with 50 μl of o-nitrophenyl-β-D-galactoside (ONPG; 4 mg/mL) in Z buffer, (Na2HPO4.7H2O (0.06M), NaH2PO4.H2O (0.04M), 1M KCl (0.01M), 1M MgSO4 (0.001M), β-mercaptoethanol (BME) (0.05M) pH 7.0). The reaction was stopped after sufficient yellow color has developed. The yellow color developed is measured at A420 […].

[1] = test system: HPV16 oncoproteins E6 and E7; test: Western and Northern blotting for HPV16 oncoproteins E6 and E7 (test (d)); format: cell-based, human papillomavirus; settings: positive in CaSki and SiHa cells
Experimental: We turn now to the criterion (d), that is at least 50% downregulation of expression of HPV16 oncoproteins E6 and E7.
Protein E6 and E7 which are expressed by HPV16 are believed to play a major role in carcinogenesis.
Western blotting and Northern blotting techniques were used to evaluate the expression of HPV E6 and E7 proteins. The cell lines used for the study were CaSKi and SiHa. The cells were treated with the test compound and cell lysate was obtained as described above and subjected to Western blotting analysis. The Western blotting analysis was performed as described above except anti-HPV 16 E7 antibody was used to probe the blot. The antibody was obtained from Santa Cruz Biotechnology, Inc. CA. For Northern blotting, total cellular RNA was isolated from cell monolayers using an RNA isolation kit from QIAGEN Inc. after treatment with the test compound. 10 μg of total cellular RNA per lane were electrophoresed in a formaldehyde-containing 1.2% agarose gel and transferred to nylon-supported membranes. After baking, membranes were prehybridized overnight in a solution containing 50% formamide, 5×sodium chloride-sodium phosphate-EDTA buffer (SSPE), 5×Denhardt's solution, 0.1% SDS and 100 μg/ml single-stranded salmon sperm DNA and then hybridized for 12 h at 42° C. with radiolabeled cDNA probes for human HPV16 E6 or E7 cDNAs and 18S rRNA. E6 and E7 (as described in Woodworth, C. D., Cancer Res. 16, 4397-4402 (2000)) and 18S rRNA probes were labeled with [^32P]-CTP by random priming. After hybridization, membranes were washed twice for 20 min at room temperature in 2×SSPE-0.1% SDS, twice for 20 min in the same solution at 55° C., and twice for 20 min in 0.1×SSPE-0.1% SDS at 55° C. Washed membranes were then subjected to autoradiography.

HER-2/neu = test: Western blotting for expression of HER-2/neu (test (b)); format: cell-based, human; settings: positive in 184B5/HER, BT474 and SKBR3 cells; 24 h; Western blot
Description: We turn now to the criterion (b), that is at least 50% decrease in level of or 50% downregulation of expression of Class I family of receptors tyrosine kinase. The Class I family of receptors tyrosine kinase is described in Reese, M. D., et al Stem Cells 15, pages 1-8 (1997), the whole of which in incorporated herein by reference. Members of the family include HER-2/neu, HER-3, HER-4 and epidermal growth factor receptor (EGFR) and are single-chain membrane spanning proteins which have significant homology to one another including about 80% amino acid identity in the tyrosine kinase domain.
HER-2/neu (erbB-2) gene product is a 185-kDA transmembrane receptor tyrosine kinase that is described in some detail in said Reese et al publication and overexpression thereof has been associated with tumor growth in several kinds of cancer.
To evaluate the expression of Class I family of receptors tyrosine kinase (EGFR, HER-2/neu), Western blotting can be performed. Antibodies for EGFR and HER-2/neu can be obtained from Santa Cruz Biotechnology, Inc.
Expression of EGFR (performed in 184B5, 184B5/HER, 1483, LNCaP, HeLa and CaSki cells)and HER-2/neu (performed in 184B5/HER, SKBR3 and BT474 cells) was assessed in cells after treatment with test compound for 24 hours. 5×10^6 cells were used for the treatment. Western blotting technique was used to assess the expression levels in cells treated with the test compound compared to vehicle alone. Western blotting was carried out as follows:
Cell lysates were prepared by treating cells with lysis buffer (150 mM NaCl, 100 mM Tris (pH 8.0), 1% Tween 20, 50 mM diethyldithiocarbamate, 1 mM EDTA, 1 mM phenylmethylsulfonyl fluoride, 10 μg/ml aprotinin, 10 μg/ml trypsin inhibitor and 10 μg/ml leupeptin). Lysates were sonicated for 20 s on ice and centrifuged at 10,000×g for 10 min to sediment the particulate material. The protein concentration of the supernatant was measured by the method of Lowry, O. H., et al., J. Biol. Chem. 193, 265-275 (195 1). SDS/PAGE was performed under reducing conditions on 10% polyacrylamide gels as described by Laemmli, U.K., Nature (Lond.) 227, 680-685 (1970). The resolved proteins were transferred onto nitrocellulose sheets as detailed by Towbin, H. et al., Proc. Natl. Acad. Sci. USA 76, 4350-4354 (1979). The nitrocellulose membrane was then incubated with anti-EGFR antiserum or anti-HER-2/neu antiserum. Secondary antibody to IgG conjugated to horseradish peroxidase was used. The various antisera were purchased from Santa Cruz Biotechnology, Inc., CA. The blots were probed with the Renaissance Western blot detection system according to the manufacturer's instructions (PerkinElmer Life Sciences, Boston, Mass.).

cyclin D1 = test: Western blotting for expression of cyclin D1 (test (c)); format: cell-based, human; settings: positive in 184B5, 184B5/HER cells; 24 h; Western blot
Experimental: Cyclin D1 is a protein that is important in regulating cell proliferation and is described in Ortega, S., et al, Biochimica et Biophysica Acta 1602, 73-87, (2002), the whole of which is incorporated by reference. […] Effects on expression of cyclin D1 was investigated in 184B5, 184B5/HER, HCA7, HCT116, SKBR3 and BT474 cells. The expression was assessed in cells after treatment with test compound or vehicle using 5×10^4 cells for 24 hours. Western blotting technique was used as follows to assess the expression levels of cyclin D1 in cells treated with the test compound and compared to levels in cells treated with vehicle alone. Cell lysates were prepared by treating cells with lysis buffer as described above. […] The resolved proteins were transferred onto nitrocellulose sheets. The nitrocellulose membrane was then incubated with anti-cyclin D1 antiserum. Secondary antibody to IgG conjugated to horseradish peroxidase was used. The various antisera were purchased from Santa Cruz Biotechnology, Inc., CA. The blots were probed with the Renaissance Western blot detection system according to the manufacturer's instructions (PerkinElmer Life Sciences, Boston, Mass.).

PTEN = test: Western and Northern blotting for expression of PTEN (test (e)); format: cell-based, human; settings: positive in 184B5, 184B5/HER, HCA7, HCT116, SKBR3 and BT474 cells
Experimental: We turn now to criterion (e), i.e., at least 50% increase in expression of PTEN.
PTEN is a tumor suppressor that inhibits cell proliferation and induces programmed cell death. PTEN (also know as MMAC-1 or TEP-1) is described in Yamada, K. M., et al, Journal of Cell Science 114, 2375-2382, the whole of which is incorporated herein by reference.
Western blotting and Northern blotting techniques were used to evaluate the expression of PTEN. The expression of PTEN was evaluated in HCA7, HCT116, SKBR3, 184B5/HER, 184B5 and BT474 cells. 5×10^6cells were used to treat either vehicle alone or the test compound. The Western blotting analysis was performed as described above except anti-PTEN antibody was used to probe the blot. The antibody was obtained from Santa Cruz Biotechnology, Inc. CA. Northern blotting for PTEN was performed as described above and cDNA for PTEN as described in Tamura, M., et al, Science 5; 280 (5369):1614-1617 (1998), was used as a probe.

[2] = test system: tcf/lef/β-catenin-mediated promoter activation; test: TOPflash/FOPflash reporter assay for tcf/lef/β-catenin-mediated promoter activation (test (f)); format: cell-based, human; settings: positive in 184B5, 184B5/HER, HCA7, HCT116, SKBR3 and BT474 cells; 24 h
Description: Tcf/lef/β-catenin is a transcription factor complex that has been implicated in the regulation of genes involved in carcinogenesis. Increased tcf/lef/β-catenin-mediated gene expression has been linked to pathogenesis of colon cancer. Tcf/lef/β-catenin is described in Barker, N., et al, Adv. Cancer Res. 77, 1-24 (2000), the whole of which is incorporated herein by reference.
Cells (cell lines were 184B5, 184B5/HER, HCA7, HCT116, SKBR3 and BT474) were split into 6 well dishes and the next day were transiently transfected using 8 μg of LipofectAMlNE as per the manufacturer's instructions (Invitrogen, CA). 1.8 μg/dish of the wildtype Tcf/Lef reporter plasmid TOP flash or the mutant plasmid FOP flash was transfected into the cells and 0.2 μg of pSV-β-galactosidase. FOPflash differs from TOPflash by the mutation of its Tcf binding sites and serves to differentiate Tef/-catenin-mediated signaling from background (Upstate Biotechnology, Inc.). Cells were incubated overnight and were treated for 24 hours with either vehicle or test compound. Luciferase activity in the extracts was measured as described above and was corrected for background by subtraction of FOP-FLASH values from corresponding TOP-FLASH values.

Compound	Test (a) activation of PPRE luciferase by at least 100% (PPRE luciferase)	Test (d) at least 50% downregulation of expression of HPV16 oncoproteins E6 and E7 [1]	Test (b) HER-2/neu: at least 50% decrease in level of or 50% downregulation of expression (HER-2/neu)	Test (c) at least 50% downregulation of expression of cyclin D1 (cyclin D1)	Test (e) at least 50% increase in expression of PTEN (PTEN)	Test (f) at least 50% inhibition of tcf/lef/β-catenin-mediated promoter activation [2]
1-(p-chlorobenzoyl)-5-methoxy-2-methyl-1H-indole-3-octylacetamide [Indomethacin Analog 6]	+ (A plus sign in the table indicates a positive result, that is meeting the test for each cell line as indicated above as providing a positive result)	+ (A plus sign in the table indicates a positive result, that is meeting the test for each cell line as indicated above as providing a positive result)	–	–	–	–
COc1ccc2c(c1)c(CC(=O)NCCc1ccccc1)c(C)n2C(=O)c1ccc(Cl)cc1 [Indomethacin Analog 2, N-(2-phenylethyl)-indomethacin amide]	+ (A plus sign in the table indicates a positive result, that is meeting the test for each cell line as indicated above as providing a positive result)	+ (A plus sign in the table indicates a positive result, that is meeting the test for each cell line as indicated above as providing a positive result)	+ (A plus sign in the table indicates a positive result, that is meeting the test for each cell line as indicated above as providing a positive result)	+ (A plus sign in the table indicates a positive result, that is meeting the test for each cell line as indicated above as providing a positive result)	–	–
COc1ccc2c(c1)c(CC(=O)Nc1cccnc1)c(C)n2C(=O)c1ccc(Cl)cc1 [Indomethacin Analog 4, N-(3-pyridyl)-indomethacin amide]	+ (A plus sign in the table indicates a positive result, that is meeting the test for each cell line as indicated above as providing a positive result)	+ (A plus sign in the table indicates a positive result, that is meeting the test for each cell line as indicated above as providing a positive result)	–	–	+ (A plus sign in the table indicates a positive result, that is meeting the test for each cell line as indicated above as providing a positive result)	+ (A plus sign in the table indicates a positive result, that is meeting the test for each cell line as indicated above as providing a positive result)
